Results published in US9902739B2, “Small molecule inhibitors of G protein coupled receptor 6 kinases polypeptides” (Mayo Foundation for Medical Education and Research, priority 2014, dated 2018).

Target: T1, GRK6, recombinant full-length GST-tagged human protein (Homo sapiens, UniProt P43250)
T1 construct: Enzyme: 20 nM GRK6, recombinant full-length GST-tagged human protein; GST
Assay: GRK6 assay, IC50 determination (8-point concentration-response)
Assay type: biochemical
Procedure: The following assay conditions were used.
Buffer: 50 mM TRIS-HCl, pH 7.5, 5 mM MgCl2, 2 mM DTT, 0.01% Triton X-100, 10 μM Na3VO4, 10 μM b-GP, 1% DMSO
Enzyme: 20 nM GRK6, recombinant full-length GST-tagged human protein
Peptide substrate (Peptide 216): 1 μM
One hundred two compounds (1-1-1-102) were further characterized by determining IC50 values in a GRK6 assay. This screen has been previously described in WO 2013/063458, which is incorporated by reference in its entirety herein. Briefly, the following activities were performed: 8-point concentration-response determinations in singlicate wells (top concentration=60 μM, 3-fold dilution steps); Repeat tests for QC failed or inconclusive compounds; and Repeat tests (titrate down) for compounds with >50% inhibition at all tested concentrations.
Twelve compounds (2-1-2-12) were further characterized by determining the IC50 values in a GRK6 assay. This screen has been previously described in WO 2013/063458, which is incorporated by reference in its entirety herein. Specific activities were performed as described above (Example 18).
Thirty-six compounds (3-1-3-36) were further characterized by determining the IC50 values in a GRK6 assay. This screen has been previously described in WO 2013/063458, which is incorporated by reference in its entirety herein. Specific activities were performed as described above (Example 18).
Fifty-four compounds (4-1-4-54) were further characterized by determining the IC50 values in a GRK6 assay. This screen has been previously described in WO 2013/063458, which is incorporated by reference in its entirety herein. Specific activities were performed as described above (Example 18).

[1] = Series 4 (Table 14), conditions as Example 18
[2] = Series 1 (Table 11), 20 nM GRK6, ATP 12 μM (Km), Peptide 216 1 μM, incubation 7 h
[3] = Series 3 (Table 13), conditions as Example 18
[4] = Series 2 (Table 12), conditions as Example 18

T1 sequence (P43250 whole entry): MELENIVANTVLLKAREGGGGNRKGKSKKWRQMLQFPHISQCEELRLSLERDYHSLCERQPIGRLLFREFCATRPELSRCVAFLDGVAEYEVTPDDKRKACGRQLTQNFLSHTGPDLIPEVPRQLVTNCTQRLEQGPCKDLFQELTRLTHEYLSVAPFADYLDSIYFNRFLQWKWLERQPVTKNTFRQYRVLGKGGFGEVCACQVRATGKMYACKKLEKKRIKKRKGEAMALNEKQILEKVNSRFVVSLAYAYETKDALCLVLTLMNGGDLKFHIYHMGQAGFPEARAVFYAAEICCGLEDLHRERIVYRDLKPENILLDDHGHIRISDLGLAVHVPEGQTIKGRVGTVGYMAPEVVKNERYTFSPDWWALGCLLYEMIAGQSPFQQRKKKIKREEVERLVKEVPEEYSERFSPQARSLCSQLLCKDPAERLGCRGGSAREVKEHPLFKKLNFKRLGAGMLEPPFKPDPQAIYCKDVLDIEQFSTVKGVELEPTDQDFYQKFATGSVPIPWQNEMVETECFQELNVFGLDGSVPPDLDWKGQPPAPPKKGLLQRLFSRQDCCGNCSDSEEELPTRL

IC50 [2] [nM] | Compound | other results
– | O=C(O)CSc1nnc(-c2cnc3cc(OCc4ccccc4)ccc3c2)[nH]1 [Compound 4-2] | IC50 [1]: 780 nM
2090 | O=C(O)CSc1nnc(-c2ccc(-c3ccc(Cl)nc3)o2)[nH]1 [Compound 1-91] | –
347 | O=C(O)CSc1nnc(-c2ccc(-c3ccc4[nH]ccc4c3)o2)[nH]1 [Compound 1-35] | –
1150 | COc1ccc2cc(-c3oc(-c4nnc(SCC(=O)O)[nH]4)cc3-c3ccccc3)ccc2c1 [Compound 1-77] | –
276 | O=C(O)CSc1nnc(-c2ccc(-c3cccc(OCc4cccc(Cl)c4)c3)o2)[nH]1 [Compound 1-24] | –
– | O=C(O)CSc1nnc(-c2c[nH]nc2-c2ccccc2)[nH]1 [Compound 4-15] | IC50 [1]: 6290 nM
309 | CCCOc1ccc(-c2ccc(-c3nnc(SCC(=O)O)[nH]3)o2)cc1Cl [Compound 1-27] | –
– | Cc1nc(-c2nnc(SCC(=O)O)[nH]2)c[nH]1 [Compound 4-52] | IC50 [1]: > 100000 nM
– | COc1cc(Cl)cc(-c2cc(-c3nnc(SCc4nnn[nH]4)[nH]3)cc([N+](=O)[O-])c2)c1 [Compound 3-7] | IC50 [3]: 1210 nM
– | CCc1n[nH]cc1-c1nnc(SCC(=O)O)[nH]1 [Compound 4-19] | IC50 [1]: 8960 nM
2020 | O=C(O)CSc1nnc(-c2ccc(Cn3c4ccccc4c4ccccc43)o2)[nH]1 [Compound 1-89] | –
392 | Cc1cc(-c2ccc(-c3nnc(SCC(=O)O)[nH]3)o2)ccc1Cl [Compound 1-42] | –
2040 | O=C(O)CSc1nnc(-c2ccc(-c3ccc(C(F)(F)F)nc3)o2)[nH]1 [Compound 1-90] | –
987 | O=C(O)CSc1nnc(-c2ccc(-c3ccc4c(c3)CCC(=O)N4)o2)[nH]1 [Compound 1-72] | –
– | CC(C)(C)C(=O)Nc1ncccc1-c1nnc(SCC(=O)O)[nH]1 [Compound 4-47] | IC50 [1]: > 64000 nM
– | Fc1cccc(-c2ccc(-c3nnc(SCc4nnn[nH]4)[nH]3)o2)c1F [Compound 3-26] | IC50 [3]: 5520 nM
– | O=C(O)CSc1nnc(-c2cc3cccc4c3n(c2=O)CC4)[nH]1 [Compound 4-42] | IC50 [1]: > 100000 nM
860 | O=C(O)CSc1nnc(-c2ccc(-c3cccc4[nH]ccc34)o2)[nH]1 [Compound 1-70] | –
1310 | O=C(O)CSc1nnc(-c2ccc(-c3ccc([N+](=O)[O-])cc3)o2)[nH]1 [Compound 1-82] | –
473 | O=C(O)CSc1nnc(-c2ccc(-c3ccc(Cl)cc3)o2)[nH]1 [Compound 1-50] | –
– | Cc1csc2sc(-c3nnc(SCC(=O)O)[nH]3)c(C)c12 [Compound 4-29] | IC50 [1]: 27300 nM
– | c1ccc2cc(-c3ccc(-c4nnc(SCc5nnn[nH]5)[nH]4)o3)ccc2c1 [Compound 3-1] | IC50 [3]: 442 nM
– | Cc1ccc2sc(-c3nnc(SCC(=O)O)[nH]3)cc2c1 [Compound 4-9] | IC50 [1]: 2610 nM
3680 | Cn1cc(-c2ccc(-c3nnc(SCC(=O)O)[nH]3)o2)cn1 [Compound 1-98] | –
– | Cc1ncsc1-c1nnc(SCC(=O)O)[nH]1 [Compound 4-51] | IC50 [1]: > 100000 nM

IC50 [2] [nM] | Compound | other results
245 | COc1ccc(-c2ccc(-c3nnc(SCC(=O)O)[nH]3)o2)cc1C=O [Compound 1-17] | –
– | O=C(O)CSc1cc(-c2ccc(Br)o2)[nH]n1 [Compound 2-11] | IC50 [4]: 5440 nM
1820 | COc1ccc(-c2ccc(-c3nnc(SCC(=O)O)[nH]3)o2)cn1 [Compound 1-88] | –
1050 | O=C(O)CSc1nnc(-c2ccc(-c3ccc(C(=O)NC4CC4)cc3)o2)[nH]1 [Compound 1-75] | –
– | CNS(=O)(=O)c1cccc(-c2ccc(-c3nnc(SCc4nnn[nH]4)[nH]3)o2)c1 [Compound 3-30] | IC50 [3]: 7160 nM
– | O=C(O)CSc1nnc(-c2csc3ccccc23)[nH]1 [Compound 4-7] | IC50 [1]: 2560 nM
367 | O=C(O)CSc1nnc(-c2ccc(-c3cccc(OCc4ccc(Cl)c(Cl)c4)c3)o2)[nH]1 [Compound 1-40] | –
324 | COc1ccc2cc(-c3oc(-c4nnc(SCC(=O)O)[nH]4)cc3C#CCO)ccc2c1 [Compound 1-31] | –
– | c1ccc(-c2cccc(-c3ccc(-c4nnc(SCc5nnn[nH]5)[nH]4)o3)c2)cc1 [Compound 3-5] | IC50 [3]: 900 nM
359 | Cc1ccc(-c2ccc(-c3nnc(SCC(=O)O)[nH]3)o2)cc1Cl [Compound 1-37] | –
189 | Cn1c2ccccc2c2ccc(-c3ccc(-c4nnc(SCC(=O)O)[nH]4)o3)cc21 [Compound 1-12] | –
424 | O=C(O)CSc1nnc(-c2ccc(-c3ccc4occc4c3)o2)[nH]1 [Compound 1-47] | –
514 | COc1ccc(/C=C/c2ccc(-c3nnc(SCC(=O)O)[nH]3)o2)cc1 [Compound 1-53] | –
– | O=C(O)CSc1nnc(-c2cccn2S(=O)(=O)c2ccccc2)[nH]1 [Compound 4-44] | IC50 [1]: > 100000 nM
– | c1cncc(-c2ccc(-c3nnc(SCc4nnn[nH]4)[nH]3)o2)c1 [Compound 3-32] | IC50 [3]: 8630 nM
608 | O=C(O)CSc1nnc(-c2ccc(-c3cc4cc(F)ccc4[nH]3)o2)[nH]1 [Compound 1-57] | –
– | O=C(O)CSc1nnc(-c2ccc(-c3ccccc3)s2)[nH]1 [Compound 4-5] | IC50 [1]: 1270 nM
1210 | COc1ccc(-c2ccc(-c3nnc(SCC(=O)O)[nH]3)o2)cc1 [Compound 1-81] | –
4370 | Cc1n[nH]c(C)c1-c1ccc(-c2nnc(SCC(=O)O)[nH]2)o1 [Compound 1-99] | –
– | Cn1cc(Cl)c(-c2nnc(SCC(=O)O)[nH]2)n1 [Compound 4-37] | IC50 [1]: 89200 nM
– | Cn1nc(C(F)(F)F)cc1-c1ccc(-c2nnc(SCC(=O)O)[nH]2)s1 [Compound 4-18] | IC50 [1]: 7410 nM
– | O=C(O)CSc1nnc(-c2cnn(-c3ccccc3)c2)[nH]1 [Compound 4-3] | IC50 [1]: 1010 nM
996 | O=C(O)CSc1nnc(-c2ccc(-c3ccccc3)o2)[nH]1 [Compound 1-73] | –
– | COc1ccc(C(F)(F)F)cc1-c1ccc(-c2nnc(SCc3nnn[nH]3)[nH]2)o1 [Compound 3-9] | IC50 [3]: 1280 nM
170 | COc1cc(Cl)cc(-c2ccc(-c3nnc(SCC(=O)O)[nH]3)o2)c1 [Compound 1-8] | –

IC50 [2] [nM] | Compound | other results
273 | O=C(O)CSc1nnc(-c2ccc(-c3cccc(OCc4ccccc4)c3)o2)[nH]1 [Compound 1-23] | –
285 | O=C(O)CSc1nnc(-c2ccc(-c3ccc4sccc4c3)o2)[nH]1 [Compound 1-26] | –
– | COc1ccc2c(-c3nnc(SCC(=O)O)[nH]3)c[nH]c2c1 [Compound 4-27] | IC50 [1]: 20700 nM
3100 | O=C(O)CSc1nnc(-c2ccc(-c3ccccc3C(F)(F)F)o2)[nH]1 [Compound 1-94] | –
– | Nc1ncc(-c2nnc(SCC(=O)O)[nH]2)cn1 [Compound 4-21] | IC50 [1]: 9610 nM
1120 | O=C(O)CSc1nnc(-c2ccc(-c3ccc(Cl)s3)o2)[nH]1 [Compound 1-76, 2-((5-(5-(5-chlorothiophen-2-yl)furan-2-yl)-4H-1,2,4-triazol-3-yl)thio)acetic acid] | –
– | O=C(O)CSc1nnc(-c2cnc3ccccc3c2)[nH]1 [Compound 4-4] | IC50 [1]: 1120 nM
3180 | O=C(O)CSc1nnc(-c2ccc(-c3ccccc3[N+](=O)[O-])o2)[nH]1 [Compound 1-95] | –
– | COc1ccc2cc(-c3cc(SCC(=O)O)n[nH]3)ccc2c1 [Compound 2-10] | IC50 [4]: 1470 nM
– | Cc1nc(-c2nnc(SCC(=O)O)[nH]2)c2ccccn12 [Compound 4-46] | IC50 [1]: > 80000 nM
133 | O=C(O)CSc1nnc(-c2ccc(-c3ccc4[nH]c(-c5ccccc5)cc4c3)o2)[nH]1 [Compound 1-4] | –
711 | CCOc1cccc(-c2ccc(-c3nnc(SCC(=O)O)[nH]3)o2)c1 [Compound 1-64] | –
– | O=C(O)CSc1nnc(-c2cncc(Br)c2)[nH]1 [Compound 4-12] | IC50 [1]: 4110 nM
315 | O=C(O)CSc1nnc(-c2ccc(-c3ccc4ncccc4c3)o2)[nH]1 [Compound 1-30, 2-((3-(5-(quinolin-6-yl)furan-2-yl)-1H-1,2,4-triazol-5-yl)thio)acetic acid] | –
– | COc1cc(Cl)cc(-c2ccc(-c3cc(SCC(=O)O)n[nH]3)s2)c1 [Compound 2-4] | IC50 [4]: 608 nM
2170 | Nc1cc(-c2ccc(-c3nnc(SCC(=O)O)[nH]3)o2)ccn1 [Compound 1-92, 2-((5-(5-(2-aminopyridin-4-yl)furan-2-yl)-4H-1,2,4-triazol-3-yl)thio)acetic acid] | –
– | O=C(O)CSc1nnc(-c2csnn2)[nH]1 [Compound 4-28] | IC50 [1]: 22300 nM
284 | O=C(O)CSc1nnc(-c2ccc(-c3ccc(Oc4ccccc4)cc3)o2)[nH]1 [Compound 1-25] | –
– | O=C(O)CSc1cc(-c2ccc(-c3ccc4c(c3)[nH]c3ccccc34)o2)[nH]n1 [Compound 2-9] | IC50 [4]: 1290 nM
1170 | O=C(O)CSc1nnc(-c2ccc(-c3ccc4nccnc4c3)o2)[nH]1 [Compound 1-79] | –
2300 | C#Cc1ccc(-c2nnc(SCC(=O)O)[nH]2)o1 [Compound 1-93] | –
458 | O=C(O)CSc1nnc(-c2ccc(-c3cccc(OCc4ccc5ccccc5c4)c3)o2)[nH]1 [Compound 1-48] | –
395 | COc1cc(-c2ccc(-c3nnc(SCC(=O)O)[nH]3)o2)ccc1OCc1ccccc1 [Compound 1-43] | –
